Measured values: patent publication US20210032257A1, “(E)-1-(4-(DIMETHYLAMINO)BUT-2-ENOYL)PYRROLIDIN-3-YL 4-((3-ISOPROPYL-5-METHYLPYRAZOLO[1,5-A]PYRIMIDIN-7-YL)AMINO)PIPERIDINE-1-CARBOXYLATE FOR INHIBITING CDK7” (Eli Lilly and Company, priority 2017, published 2021)

Assays:
Test in all cases: Biomarker study proliferation (CellTiter-Glo)
Assay type in all cases: cell-based
[1] = tested on: SW900
Summary of the method: (§1)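 Luminescence from CellTiter-Glo, read 15 minutes after reagent addition, measures viable cells after a seven-day compound exposure at 37 °C. Plating is 5000 cells per well in recommended medium such as RPMI 1640 with 10% FBS.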

[2] = tested on: TGW
Summary of the method: as §1

[3] = tested on: SNU5
Summary of the method: as §1

[4] = tested on: SJRH30
Summary of the method: as §1

[5] = tested on: HEPG2
Summary of the method: as §1

[6] = tested on: KLE
Summary of the method: as §1

[7] = tested on: KYSE520
Summary of the method: as §1

[8] = tested on: NCIH1436
Summary of the method: as §1

[9] = tested on: MKN74
Summary of the method: as §1

[10] = tested on: HEYA8
Summary of the method: as §1

[11] = tested on: DMS273
Summary of the method: as §1

[12] = tested on: KYSE270
Summary of the method: as §1

[13] = tested on: SW837
Summary of the method: as §1

[14] = tested on: NCIH69
Summary of the method: as §1

[15] = tested on: KARPAS299
Summary of the method: as §1

[16] = tested on: Raw264.7
Summary of the method: as §1

[17] = tested on: DMS79
Summary of the method: as §1

[18] = tested on: SW780
Summary of the method: as §1

## Cc1cc(NC2CCN(C(=O)O[C@H]3CCN(C(=O)/C=C/CN(C)C)C3)CC2)n2ncc(C(C)C)c2n1 [Example 1, [(3S)-1-[(E)-4-(dimethylamino)but-2-enoyl]pyrrolidin-3-yl] 4-[(3-isopropyl-5-methyl-pyrazolo[1,5-a]pyrimidin-7-yl)amino]piperidine-1-carboxylate]
[1]; Homo sapiens, SW900, 168 h, read-out: Anti-proliferation effect IC50
  IC50: 3810 nM
[1]; SW900, LUNG, 7 days
  Anti-proliferation effect % Inh.: 13%
  Anti-proliferation effect Outcome: Insensitive (insensitive (IC50≥1 μM))
[2]; 168 h, read-out: Anti-proliferation effect IC50
  IC50: 70 nM
[2]; TGW, BRAIN, 7 days
  Anti-proliferation effect % Inh.: 63%
  Anti-proliferation effect Outcome: Cytostatic (cytostatic (IC50<1 μM and % inhibition <70%))
[3]; Homo sapiens, SNU-5, 168 h, read-out: Anti-proliferation effect IC50
  IC50: 39 nM
[3]; SNU5, STOMACH, 7 days
  Anti-proliferation effect % Inh.: 79%
  Anti-proliferation effect Outcome: Cytotoxic (cytotoxic (IC50<1 μM and % inhibition ≥70%))
[4]; Homo sapiens, SJRH30, 168 h, read-out: Anti-proliferation effect IC50
  IC50: 39 nM
[4]; SJRH30, SOFT TISSUE, 7 days
  Anti-proliferation effect % Inh.: 62%
  Anti-proliferation effect Outcome: Cytostatic (cytostatic (IC50<1 μM and % inhibition <70%))
[5]; HEPG2, LIVER, 7 days
  Anti-proliferation effect % Inh.: 78%
  Anti-proliferation effect Outcome: Cytotoxic (cytotoxic (IC50<1 μM and % inhibition ≥70%))
[5]; Homo sapiens, HepG2, 168 h, read-out: Anti-proliferation effect IC50
  IC50: 28 nM
[6]; ENDOMETRIUM, 7 days
  Anti-proliferation effect % Inh.: 65%
  Anti-proliferation effect Outcome: Cytostatic (cytostatic (IC50<1 μM and % inhibition <70%))
[6]; Homo sapiens, 168 h, read-out: Anti-proliferation effect IC50
  IC50: 28 nM
[7]; Homo sapiens, KYSE-520, 168 h, read-out: Anti-proliferation effect IC50
  IC50: > 10000 nM
[7]; KYSE520, OESOPHAGUS, 7 days
  Anti-proliferation effect % Inh.: 50%
  Anti-proliferation effect Outcome: Insensitive (insensitive (IC50≥1 μM))
[8]; Homo sapiens, NCI-H1436, 168 h, read-out: Anti-proliferation effect IC50
  IC50: 195 nM
[8]; NCIH1436, LUNG, 7 days
  Anti-proliferation effect % Inh.: 56%
  Anti-proliferation effect Outcome: Cytostatic (cytostatic (IC50<1 μM and % inhibition <70%))
[9]; Homo sapiens, MKN-74, 168 h, read-out: Anti-proliferation effect IC50
  IC50: 73 nM
[9]; MKN74, STOMACH, 7 days
  Anti-proliferation effect % Inh.: 71%
  Anti-proliferation effect Outcome: Cytotoxic (cytotoxic (IC50<1 μM and % inhibition ≥70%))
[10]; HEY A8, 168 h, read-out: Anti-proliferation effect IC50
  IC50: 112 nM
[10]; HEYA8, OVARY, 7 days
  Anti-proliferation effect % Inh.: 89%
  Anti-proliferation effect Outcome: Cytotoxic (cytotoxic (IC50<1 μM and % inhibition ≥70%))
[11]; DMS273, LUNG, 7 days
  Anti-proliferation effect % Inh.: 80%
  Anti-proliferation effect Outcome: Cytotoxic (cytotoxic (IC50<1 μM and % inhibition ≥70%))
[11]; Homo sapiens, DMS-273, 168 h, read-out: Anti-proliferation effect IC50
  IC50: 19 nM
[12]; Homo sapiens, KYSE-270, 168 h, read-out: Anti-proliferation effect IC50
  IC50: > 10000 nM
[12]; KYSE270, OESOPHAGUS, 7 days
  Anti-proliferation effect % Inh.: −180%
  Anti-proliferation effect Outcome: Insensitive (insensitive (IC50≥1 μM))
[13]; Homo sapiens, SW837, 168 h, read-out: Anti-proliferation effect IC50
  IC50: 68 nM
[13]; SW837, INTESTINE, 7 days
  Anti-proliferation effect % Inh.: 55%
  Anti-proliferation effect Outcome: Cytostatic (cytostatic (IC50<1 μM and % inhibition <70%))
[14]; Homo sapiens, NCI-H69, 168 h, read-out: Anti-proliferation effect IC50
  IC50: 173 nM
[14]; NCIH69, LUNG, 7 days
  Anti-proliferation effect % Inh.: 68%
  Anti-proliferation effect Outcome: Cytostatic (cytostatic (IC50<1 μM and % inhibition <70%))
[15]; Homo sapiens, KARPAS-299, 168 h, read-out: Anti-proliferation effect IC50
  IC50: 69 nM
[15]; KARPAS299, BLOOD, 7 days
  Anti-proliferation effect % Inh.: 78%
  Anti-proliferation effect Outcome: Cytotoxic (cytotoxic (IC50<1 μM and % inhibition ≥70%))
[16]; Mus musculus, RAW264.7, 168 h, read-out: Anti-proliferation effect IC50
  IC50: 355 nM
[16]; Raw264.7, 7 days
  Anti-proliferation effect % Inh.: 62%
  Anti-proliferation effect Outcome: Cytostatic (cytostatic (IC50<1 μM and % inhibition <70%))
[17]; DMS79, LUNG, 7 days
  Anti-proliferation effect % Inh.: 50%
  Anti-proliferation effect Outcome: Cytostatic (cytostatic (IC50<1 μM and % inhibition <70%))
[17]; Homo sapiens, DMS-79, 168 h, read-out: Anti-proliferation effect IC50
  IC50: 354 nM
[18]; Homo sapiens, SW780, 168 h, read-out: Anti-proliferation effect IC50
  IC50: 74 nM
[18]; SW780, URINARY, 7 days
  Anti-proliferation effect % Inh.: 68%
  Anti-proliferation effect Outcome: Cytostatic (cytostatic (IC50<1 μM and % inhibition <70%))
